In US20200187502A1, “MICROBIOCIDAL OXADIAZOLE DERIVATIVES” (SYNGENTA PARTICIPATIONS AG, priority 2017, published 2020):

Tests used:
[1] = system: Puccinia recondita f. Sp. Tritici; assay: Fungicidal activity, wheat leaf disc preventative (brown rust); type: in vivo; conditions: foliar, 200 ppm in the applied formulation, wheat leaf segments cv. Kanzler, compared to untreated control, 7 to 9 days after application, read-out: disease control
Method in brief: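 Wheat cv. Kanzler leaf segments on agar were sprayed with formulated compound in water, then inoculated with spores 1 day later. Incubated at 19° C, 75% rh, 12 h light/12 h dark; percent disease control versus untreated scored 7 to 9 days after application.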

[2] = system: Puccinia recondita f. Sp. Tritici; assay: Fungicidal activity, wheat leaf disc curative (brown rust); type: in vivo; conditions: foliar, 200 ppm in the applied formulation, wheat leaf segments cv. Kanzler, curative (applied 1 day after inoculation), compared to untreated control, 6 to 8 days after application, read-out: disease control
Method in brief: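 Curative test: wheat leaf segments cv. Kanzler on agar inoculated with spore suspension, kept dark at 19 °C/75% RH, then sprayed 1 day post-inoculation with compound diluted in water. Incubated at 19 °C, 75% RH, 12 h light/dark; percent disease control versus untreated scored 6–8 days after application.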

[3] = system: Glomerella lacenarium (Colletotrichum lacenarium); assay: Fungicidal activity, liquid culture, cucumber preventative (anthracnose); type: cell-based; conditions: 20 ppm in the applied formulation, liquid culture in PDB, inhibition of growth measured photometrically 3 to 4 days after application, compared to untreated control, read-out: disease control
Method in brief: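 Cryostored conidia mixed into potato dextrose broth and added to DMSO compound solution in microtiter plates. Incubated at 24 °C. Growth inhibition read photometrically 3–4 days after application as percent activity versus untreated check.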

O=C(C1CC1)N(Cc1ccc(-c2noc(C(F)(F)F)n2)s1)OCC(F)F [Compound 5.7, N-(2,2-difluoroethoxy)-N-[[5-[5-(trifluoromethyl)-1,2,4-oxadiazol-3-yl]-2-thienyl]methyl]cyclopropanecarboxamide]
≥ 80%: pest or weed control at 200 ppm [1] | pest or weed control at 200 ppm [2] | inhibition of growth at 20 ppm [3]

CCN(Cc1ccc(-c2noc(C(F)(F)F)n2)s1)C(=O)CC1CC1 [Compound 5.9, 2-cyclopropyl-N-ethyl-N-[[5-[5-(trifluoromethyl)-1,2,4-oxadiazol-3-yl]-2-thienyl]methyl]acetamide]
≥ 80%: pest or weed control at 200 ppm [1] | pest or weed control at 200 ppm [2] | inhibition of growth at 20 ppm [3]

CCN(Cc1ccc(-c2noc(C(F)(F)F)n2)s1)C(=O)C1CCOC1 (stereo not drawn) [Compound 5.10, N-ethyl-N-[[5-[5-(trifluoromethyl)-1,2,4-oxadiazol-3-yl]-2-thienyl]methyl]tetrahydrofuran-3-carboxamide]
≥ 80%: pest or weed control at 200 ppm [1] | pest or weed control at 200 ppm [2] | inhibition of growth at 20 ppm [3]

CCN(Cc1ccc(-c2noc(C(F)(F)F)n2)s1)C(=O)C1CCC1 [Compound 5.11, N-ethyl-N-[[5-[5-(trifluoromethyl)-1,2,4-oxadiazol-3-yl]-2-thienyl]methyl]cyclobutanecarboxamide]
≥ 80%: pest or weed control at 200 ppm [1] | pest or weed control at 200 ppm [2] | inhibition of growth at 20 ppm [3]

CCN(Cc1ccc(-c2noc(C(F)(F)F)n2)s1)C(=O)C1(C)CC1 [Compound 5.12, N-ethyl-1-methyl-N-[[5-[5-(trifluoromethyl)-1,2,4-oxadiazol-3-yl]-2-thienyl]methyl]cyclopropanecarboxamide]
≥ 80%: pest or weed control at 200 ppm [1] | pest or weed control at 200 ppm [2] | inhibition of growth at 20 ppm [3]

CCN(Cc1ccc(-c2noc(C(F)(F)F)n2)s1)C(=O)C1CCCO1 (stereo not drawn) [Compound 5.13, N-ethyl-N-[[5-[5-(trifluoromethyl)-1,2,4-oxadiazol-3-yl]-2-thienyl]methyl]tetrahydrofuran-2-carboxamide]
≥ 80%: pest or weed control at 200 ppm [1] | pest or weed control at 200 ppm [2] | inhibition of growth at 20 ppm [3]

CN(Cc1ccc(-c2noc(C(F)(F)F)n2)s1)C(=O)C1CCCO1 (stereo not drawn) [Compound 5.22, N-methyl-N-[[5-[5-(trifluoromethyl)-1,2,4-oxadiazol-3-yl]-2-thienyl]methyl]tetrahydrofuran-2-carboxamide]
≥ 80%: pest or weed control at 200 ppm [1] | pest or weed control at 200 ppm [2] | inhibition of growth at 20 ppm [3]

CN(Cc1ccc(-c2noc(C(F)(F)F)n2)s1)C(=O)C1(C)COC1 [Compound 5.23, N,3-dimethyl-N-[[5-[5-(trifluoromethyl)-1,2,4-oxadiazol-3-yl]-2-thienyl]methyl]oxetane-3-carboxamide]
≥ 80%: pest or weed control at 200 ppm [1] | pest or weed control at 200 ppm [2] | inhibition of growth at 20 ppm [3]

CC(C)N(Cc1ccc(-c2noc(C(F)(F)F)n2)s1)C(=O)C1CCOC1 (stereo not drawn) [Compound 5.28, N-isopropyl-N-[[5-[5-(trifluoromethyl)-1,2,4-oxadiazol-3-yl]-2-thienyl]methyl]tetrahydrofuran-3-carboxamide]
≥ 80%: pest or weed control at 200 ppm [1] | pest or weed control at 200 ppm [2] | inhibition of growth at 20 ppm [3]

CC(C)N(Cc1ccc(-c2noc(C(F)(F)F)n2)s1)C(=O)C1(C)COC1 [Compound 5.32, N-isopropyl-3-methyl-N-[[5-[5-(trifluoromethyl)-1,2,4-oxadiazol-3-yl]-2-thienyl]methyl]oxetane-3-carboxamide]
≥ 80%: pest or weed control at 200 ppm [1] | pest or weed control at 200 ppm [2] | inhibition of growth at 20 ppm [3]

O=C(C1CCOC1)N(Cc1ccc(-c2noc(C(F)(F)F)n2)s1)C1CC1 (stereo not drawn) [Compound 5.37, N-cyclopropyl-N-[[5-[5-(trifluoromethyl)-1,2,4-oxadiazol-3-yl]-2-thienyl]methyl]tetrahydrofuran-3-carboxamide]
≥ 80%: pest or weed control at 200 ppm [1] | pest or weed control at 200 ppm [2] | inhibition of growth at 20 ppm [3]

CC1(C(=O)N(Cc2ccc(-c3noc(C(F)(F)F)n3)s2)C2CC2)CC1 [Compound 5.39, N-cyclopropyl-1-methyl-N-[[5-[5-(trifluoromethyl)-1,2,4-oxadiazol-3-yl]-2-thienyl]methyl]cyclopropanecarboxamide]
≥ 80%: pest or weed control at 200 ppm [1] | pest or weed control at 200 ppm [2] | inhibition of growth at 20 ppm [3]

O=C(C1CCCO1)N(Cc1ccc(-c2noc(C(F)(F)F)n2)s1)C1CC1 (stereo not drawn) [Compound 5.40, N-cyclopropyl-N-[[5-[5-(trifluoromethyl)-1,2,4-oxadiazol-3-yl]-2-thienyl]methyl]tetrahydrofuran-2-carboxamide]
≥ 80%: pest or weed control at 200 ppm [1] | pest or weed control at 200 ppm [2] | inhibition of growth at 20 ppm [3]

CC1(C(=O)N(Cc2ccc(-c3noc(C(F)(F)F)n3)s2)C2CC2)COC1 [Compound 5.41, N-cyclopropyl-3-methyl-N-[[5-[5-(trifluoromethyl)-1,2,4-oxadiazol-3-yl]-2-thienyl]methyl]oxetane-3-carboxamide]
≥ 80%: pest or weed control at 200 ppm [1] | pest or weed control at 200 ppm [2] | inhibition of growth at 20 ppm [3]

O=C(C1CC1(F)F)N(Cc1ccc(-c2noc(C(F)(F)F)n2)s1)C1CC1 (stereo not drawn) [Compound 5.42, N-cyclopropyl-2,2-difluoro-N-[[5-[5-(trifluoromethyl)-1,2,4-oxadiazol-3-yl]-2-thienyl]methyl]cyclopropanecarboxamide]
≥ 80%: pest or weed control at 200 ppm [1] | pest or weed control at 200 ppm [2] | inhibition of growth at 20 ppm [3]

CC1CC1C(=O)N(Cc1ccc(-c2noc(C(F)(F)F)n2)s1)C1CC1 (stereo not drawn) [Compound 5.43, N-cyclopropyl-2-methyl-N-[[5-[5-(trifluoromethyl)-1,2,4-oxadiazol-3-yl]-2-thienyl]methyl]cyclopropanecarboxamide]
≥ 80%: pest or weed control at 200 ppm [1] | pest or weed control at 200 ppm [2] | inhibition of growth at 20 ppm [3]

CC1CC1C(=O)N(Cc1ccc(-c2noc(C(F)(F)F)n2)s1)OCC(F)F (stereo not drawn) [Compound 5.50, N-(2,2-difluoroethoxy)-2-methyl-N-[[5-[5-(trifluoromethyl)-1,2,4-oxadiazol-3-yl]-2-thienyl]methyl]cyclopropanecarboxamide]
≥ 80%: pest or weed control at 200 ppm [1] | pest or weed control at 200 ppm [2] | inhibition of growth at 20 ppm [3]

CCN(Cc1ccc(-c2noc(C(F)(F)F)n2)s1)C(=O)N(CC(F)F)C1CC1 [Compound 5.51, 1-cyclopropyl-1-(2,2-difluoroethyl)-3-ethyl-3-[[5-[5-(trifluoromethyl)-1,2,4-oxadiazol-3-yl]-2-thienyl]methyl]urea]
≥ 80%: pest or weed control at 200 ppm [1] | pest or weed control at 200 ppm [2] | inhibition of growth at 20 ppm [3]

CCN(Cc1ccc(-c2noc(C(F)(F)F)n2)s1)C(=O)N1CCCO1 [Compound 5.52, N-ethyl-N-[[5-[5-(trifluoromethyl)-1,2,4-oxadiazol-3-yl]-2-thienyl]methyl]isoxazolidine-2-carboxamide]
≥ 80%: pest or weed control at 200 ppm [1] | pest or weed control at 200 ppm [2] | inhibition of growth at 20 ppm [3]

CCCN(CC1CC1)C(=O)N(CC)Cc1ccc(-c2noc(C(F)(F)F)n2)s1 [Compound 5.53, 1-(cyclopropylmethyl)-3-ethyl-1-propyl-3-[[5-[5-(trifluoromethyl)-1,2,4-oxadiazol-3-yl]-2-thienyl]methyl]urea]
≥ 80%: pest or weed control at 200 ppm [1] | pest or weed control at 200 ppm [2] | inhibition of growth at 20 ppm [3]

CN(Cc1ccc(-c2noc(C(F)(F)F)n2)s1)C(=O)N(CC(F)F)C1CC1 [Compound 5.54, 1-cyclopropyl-1-(2,2-difluoroethyl)-3-methyl-3-[[5-[5-(trifluoromethyl)-1,2,4-oxadiazol-3-yl]-2-thienyl]methyl]urea]
≥ 80%: pest or weed control at 200 ppm [1] | pest or weed control at 200 ppm [2] | inhibition of growth at 20 ppm [3]

CN(Cc1ccc(-c2noc(C(F)(F)F)n2)s1)C(=O)N1CCC2(CC2)C1 [Compound 5.55, N-methyl-N-[[5-[5-(trifluoromethyl)-1,2,4-oxadiazol-3-yl]-2-thienyl]methyl]-5-azaspiro[2.4]heptane-5-carboxamide]
≥ 80%: pest or weed control at 200 ppm [1] | pest or weed control at 200 ppm [2] | inhibition of growth at 20 ppm [3]

CCCN(CC1CC1)C(=O)N(C)Cc1ccc(-c2noc(C(F)(F)F)n2)s1 [Compound 5.57, 1-(cyclopropylmethyl)-3-methyl-1-propyl-3-[[5-(5-(trifluoromethyl)-1,2,4-oxadiazol-3-yl]-2-thienyl]methyl]urea]
≥ 80%: pest or weed control at 200 ppm [1] | pest or weed control at 200 ppm [2] | inhibition of growth at 20 ppm [3]

CC(C)N(Cc1ccc(-c2noc(C(F)(F)F)n2)s1)C(=O)NC1CC1 [Compound 5.59, 3-cyclopropyl-1-isopropyl-1-[[5-[5-(trifluoromethyl)-1,2,4-oxadiazol-3-yl]-2-thienyl]methyl]urea]
≥ 80%: pest or weed control at 200 ppm [1] | pest or weed control at 200 ppm [2] | inhibition of growth at 20 ppm [3]

O=C(N1CCCO1)N(Cc1ccc(-c2noc(C(F)(F)F)n2)s1)C1CC1 [Compound 5.61, N-cyclopropyl-N-[[5-[5-(trifluoromethyl)-1,2,4-oxadiazol-3-yl]-2-thienyl]methyl]isoxazolidine-2-carboxamide]
≥ 80%: pest or weed control at 200 ppm [1] | pest or weed control at 200 ppm [2] | inhibition of growth at 20 ppm [3]
